Columns and labels:
CDK2 = target: T1, CDK2 (Homo sapiens, UniProt P24941); test: CDK protein degradation activity (Western blotting), CDK2; assay type: cell-based; conditions: MDA-MB-231 cells, 16 hours, Western blot
T1 construct: endogenous in cells; host or cells: MDA-MB-231
How it was run: (§1)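 Seed MDA-MB-231 cells; next day add compound to 100 nM, 1 μM or 10 μM final, or DMSO. After 16 h, harvest and lyse in Triton X-100 buffer, run SDS-PAGE, probe for CDK2, CDK9 and tubulin.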

CDK9 = target: T2, CDK9 (Homo sapiens, UniProt P50750); test: CDK protein degradation activity (Western blotting), CDK9; assay type: cell-based; conditions: MDA-MB-231 cells, 16 hours, Western blot
T2 construct: endogenous in cells; host or cells: MDA-MB-231
T2 sequence (P50750 whole entry): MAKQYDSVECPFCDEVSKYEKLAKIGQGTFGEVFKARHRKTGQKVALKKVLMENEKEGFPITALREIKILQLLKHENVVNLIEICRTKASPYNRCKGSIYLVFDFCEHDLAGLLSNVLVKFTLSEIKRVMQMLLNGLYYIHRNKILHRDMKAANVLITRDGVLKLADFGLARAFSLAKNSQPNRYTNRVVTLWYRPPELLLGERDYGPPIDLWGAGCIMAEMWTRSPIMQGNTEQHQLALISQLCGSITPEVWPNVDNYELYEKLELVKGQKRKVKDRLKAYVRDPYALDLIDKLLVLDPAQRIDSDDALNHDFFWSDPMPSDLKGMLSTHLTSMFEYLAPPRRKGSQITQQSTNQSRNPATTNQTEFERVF
How it was run: as §1

| Enzyme degradation CDK2 (% remaining) @ 0.1 μM (CDK2) | Enzyme degradation CDK2 (% remaining) @ 1 μM (CDK2) | Enzyme degradation CDK2 (% remaining) @ 10 μM (CDK2) | Enzyme degradation CDK9 (% remaining) @ 0.1 μM (CDK9) | Enzyme degradation CDK9 (% remaining) @ 1 μM (CDK9) | Enzyme degradation CDK9 (% remaining) @ 10 μM (CDK9) | Compound |
| --- | --- | --- | --- | --- | --- | --- |
| 30% | 20% | 40% | 10% | 0% | 0% | O=C1CC[C@@H](c2ccc(OCC(=O)N3CCC(CN4CCN(c5ccc(Nc6ncnc7c6ncn7C6CC(NC(=O)Cc7ccccc7)C6)cc5)CC4)CC3)cc2)C(=O)N1 (stereo partly drawn) [Compound 202, N-((1s,3s)-3-(6-((4-(4-((1-(2-(4-(2,6-dioxopiperidin-3-yl)phenoxy)acetyl)piperidin-4-yl)methyl)piperazin-1-yl)phenyl)amino)-9H-purin-9-yl)cyclobutyl)-2-phenylacetamide] |
| 70% | 40% | 70% | 20% | 0% | 0% | O=C1CC[C@@H](c2ccc(OCC(=O)N3CCC(CC(=O)N4CCN(c5ccc(Nc6ncnc7c6ncn7C6CC(NC(=O)Cc7ccccc7)C6)cc5)CC4)CC3)cc2)C(=O)N1 (stereo partly drawn) [Compound 203, N-((1s,3s)-3-(6-((4-(4-(2-(1-(2-(4-(2,6-dioxopiperidin-3-yl)phenoxy)acetyl)piperidin-4-yl)acetyl)piperazin-1-yl)phenyl)amino)-9H-purin-9-yl)cyclobutyl)-2-phenylacetamide] |
| 20% | 20% | 10% | 0/0/0% | 0/0/0% | 0/0/0% | O=C1CCC(N2C(=O)c3cccc(OCC(=O)N4CCC5(CC4)CC(N4CCN(c6ccc(Nc7ncnc8c7ncn8[C@H]7C[C@@H](NC(=O)Cc8ccccc8)C7)cc6)CC4)C5)c3C2=O)C(=O)N1 (stereo partly drawn) [Compound 206, N-((1s,3s)-3-(6-((4-(4-(7-(2-((2-(2,6-dioxopiperidin-3-yl)-1,3-dioxoisoindolin-4-yl)oxy)acetyl)-7-azaspiro[3.5]nonan-2-yl)piperazin-1-yl)phenyl)amino)-9H-purin-9-yl)cyclobutyl)-2-phenylacetamide] |

The remaining lines, values behind:

| Compound | Enzyme degradation CDK2 (% remaining) @ 0.1 μM (CDK2) | Enzyme degradation CDK2 (% remaining) @ 1 μM (CDK2) | Enzyme degradation CDK2 (% remaining) @ 10 μM (CDK2) | Enzyme degradation CDK9 (% remaining) @ 0.1 μM (CDK9) | Enzyme degradation CDK9 (% remaining) @ 1 μM (CDK9) | Enzyme degradation CDK9 (% remaining) @ 10 μM (CDK9) |
| --- | --- | --- | --- | --- | --- | --- |
| O=C(Cc1cccc(NC2=CC(=O)N(C3CCC(=O)NC3=O)C2=O)c1)NC[C@H]1CC[C@H](CN2CCN(c3ccc(Nc4ncnc5c4ncn5[C@H]4C[C@@H](NC(=O)Cc5ccccc5)C4)cc3)CC2)CC1 (stereo partly drawn) [Compound 200, 2-(3-((1-(2,6-dioxopiperidin-3-yl)-2,5-dioxo-2,5-dihydro-1H-pyrrol-3-yl)amino)phenyl)-N-(((1r,4r)-4-((4-(4-((9-((1s,3s)-3-(2-phenylacetamido)cyclobutyl)-9H-purin-6-yl)amino)phenyl)piperazin-1-yl)methyl)cyclohexyl)methyl)acetamide] | 100/100/100% | 100/100/100% | 100/100/100% | 20/20/20% | 20/20/20% | 20/20/20% |
| O=C1CCC(N2C(=O)C=C(N3CCC(C(=O)NC[C@H]4CC[C@H](CN5CCN(c6ccc(Nc7ncnc8c7ncn8[C@H]7C[C@@H](NC(=O)Cc8ccccc8)C7)cc6)CC5)CC4)CC3)C2=O)C(=O)N1 (stereo partly drawn) [Compound 201, 1-(1-(2,6-dioxopiperidin-3-yl)-2,5-dioxo-2,5-dihydro-1H-pyrrol-3-yl)-N-(((1r,4r)-4-((4-(4-((9-((1s,3s)-3-(2-phenylacetamido)cyclobutyl)-9H-purin-6-yl)amino)phenyl)piperazin-1-yl)methyl)cyclohexyl)methyl)piperidin-4-carboxamide] | 50% | 70% | 50% | 10% | 10% | 0% |
| O=C1CC[C@H](N2C(=O)c3cccc(NCC(=O)N4CCC5(CC4)CC(N4CCN(c6ccc(Nc7ncnc8c7ncn8[C@H]7C[C@@H](NC(=O)Cc8ccccc8)C7)cc6)CC4)C5)c3C2=O)C(=O)N1 [Compound 204, N-((1s,3s)-3-(6-((4-(4-(7-((2-(2,6-dioxopiperidin-3-yl)-1,3-dioxoisoindolin-4-yl)glycyl)-7-azaspiro[3.5]nonan-2-yl)piperazin-1-yl)phenyl)amino)-9H-purin-9-yl)cyclobutyl)-2-phenylacetamide] | 20/20/20% | 20/20/20% | 20/20/20% | 0/0/0% | 0/0/0% | 0/0/0% |
| O=C1CCC(c2ccc(OCC(=O)N3CCC4(CC3)CC(N3CCN(c5ccc(Nc6ncnc7c6ncn7[C@H]6C[C@@H](NC(=O)Cc7ccccc7)C6)cc5)CC3)C4)cc2)C(=O)N1 (stereo partly drawn) [Compound 205, N-((1s,3s)-3-(6-((4-(4-(7-(2-(4-(2,6-dioxopiperidin-3-yl)phenoxy)acetyl)-7-azaspiro[3.5]nonan-2-yl)piperazin-1-yl)phenyl)amino)-9H-purin-9-yl)cyclobutyl)-2-phenylacetamide] | 30/30/30% | 30/30/30% | 30/30/30% | 0/0/0% | 0/0/0% | 0/0/0% |
| O=C1CC[C@H](N2C(=O)c3ccc(NCC(=O)N4CCC5(CC4)CC(N4CCN(c6ccc(Nc7ncnc8c7ncn8[C@H]7C[C@@H](NC(=O)Cc8ccccc8)C7)cc6)CC4)C5)cc3C2=O)C(=O)N1 [Compound 207, N-((1s,3s)-3-(6-((4-(4-(7-((2-(2,6-dioxopiperidin-3-yl)-1,3-dioxoisoindolin-5-yl)glycyl)-7-azaspiro[3.5]nonan-2-yl)piperazin-1-yl)phenyl)amino)-9H-purin-9-yl)cyclobutyl)-2-phenylacetamide] | 50% | 70% | 50% | 0/0/0% | 0/0/0% | 0/0/0% |
| O=C1CC[C@H](N2C(=O)c3ccc(OCC(=O)N4CCC5(CC4)CC(N4CCN(c6ccc(Nc7ncnc8c7ncn8[C@H]7C[C@@H](NC(=O)Cc8ccccc8)C7)cc6)CC4)C5)cc3C2=O)C(=O)N1 [Compound 208, N-((1s,3s)-3-(6-((4-(4-(7-(2-((2-(2,6-dioxopiperidin-3-yl)-1,3-dioxoisoindolin-5-yl)oxy)acetyl)-7-azaspiro[3.5]nonan-2-yl)piperazin-1-yl)phenyl)amino)-9H-purin-9-yl)cyclobutyl)-2-phenylacetamide] | 80% | 70% | 70% | 10% | 0% | 0% |

Reference: patent US20260125382A1, “COMPOUNDS FOR INHIBITING OR DEGRADING CDK2 AND/OR CDK9 AND MEDICINAL USE THEREOF” (KOREA RESEARCH INSTITUTE OF CHEMICAL TECHNOLOGY, priority 2022, published 2026)
